# Experimental data taken from patent US8759513B2, “Polymorphic form of rifaximin and process for its preparation” (Sequent Scientific Limited, priority 2011, dated 2014).
# Assay: Stability of amorphous rifaximin on storage, followed by PXRD spectroscopy
# Assay type: physicochemical
# Details: as indicated by the PXRD spectroscopy
smiles,measurement,setting,value
"CO[C@H]1/C=C/O[C@@]2(C)Oc3c(C)c(O)c4c(O)c(c5c(nc6cc(C)ccn65)c4c3C2=O)NC(=O)/C(C)=C\C=C\[C@H](C)[C@H](O)[C@@H](C)[C@@H](O)[C@@H](C)[C@H](OC(C)=O)[C@@H]1C [amorphous rifaximin, (2S,16Z,18E,20S,21S,22R,23R,24R,25S,26S,27S,28E)-5,6,21,23,25-pentahydroxy-27-methoxy-2,4,11,16,20,22,24,26-octamethyl-2,7-(epoxypentadeca-[1,11,13]trienimino)benzofuro[4,5-e]pyrido[1,2-α]-benzimidazole-1,15(2H)-dione, 25-acetate]",effect of external parameters such as ambient humidity,ambient humidity,unaffected
same,chemical and polymorphic stability on storage,on storage,very stable chemically and polymorphically on storage
